Molecular target: T1, CK1α (Homo sapiens, UniProt P48729+Q96SW2)
T1 construct: expressed in transfected cells
Assay: CK1α ePL degradation assay in MDS-L cells
Type: cell-based
Conditions: MDS-L cells expressing ePL-tagged CK1α; for DC50: concentration giving 50% CK1α degradation vs DMSO control; for Y: lowest measured CK1α level normalized to DMSO control
In short: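 Degradation efficiency is reported as Y value, the minimum CK1α level (percent of DMSO control) across doses. Readout used InCELL Hunter luminescent detection after MDS-L cell exposure at 37° C for stated times, doses 10 μM down to 0.0005 μM in 3-fold steps.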

T1 sequence (P48729 whole entry): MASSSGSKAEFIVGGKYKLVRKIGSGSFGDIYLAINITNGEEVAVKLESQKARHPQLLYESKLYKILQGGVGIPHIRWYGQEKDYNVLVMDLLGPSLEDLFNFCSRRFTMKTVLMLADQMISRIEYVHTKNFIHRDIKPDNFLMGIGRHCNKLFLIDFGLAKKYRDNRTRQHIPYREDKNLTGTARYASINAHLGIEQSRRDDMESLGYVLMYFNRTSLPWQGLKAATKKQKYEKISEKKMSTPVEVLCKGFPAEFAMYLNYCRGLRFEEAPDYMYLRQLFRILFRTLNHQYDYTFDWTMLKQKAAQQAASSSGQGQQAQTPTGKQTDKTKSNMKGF
T1 sequence (Q96SW2 whole entry): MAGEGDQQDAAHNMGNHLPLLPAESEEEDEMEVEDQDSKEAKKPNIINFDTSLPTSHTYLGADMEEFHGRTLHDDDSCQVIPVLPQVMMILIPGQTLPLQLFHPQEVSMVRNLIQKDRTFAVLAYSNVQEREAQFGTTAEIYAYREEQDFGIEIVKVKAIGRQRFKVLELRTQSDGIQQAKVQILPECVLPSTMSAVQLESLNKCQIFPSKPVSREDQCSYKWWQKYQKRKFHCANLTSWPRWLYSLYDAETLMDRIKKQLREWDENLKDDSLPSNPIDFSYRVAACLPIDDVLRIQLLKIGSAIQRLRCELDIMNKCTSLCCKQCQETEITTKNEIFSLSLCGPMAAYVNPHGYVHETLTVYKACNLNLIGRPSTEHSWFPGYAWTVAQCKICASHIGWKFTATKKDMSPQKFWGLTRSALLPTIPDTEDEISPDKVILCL
T1 sequence (Q16531 whole entry partner): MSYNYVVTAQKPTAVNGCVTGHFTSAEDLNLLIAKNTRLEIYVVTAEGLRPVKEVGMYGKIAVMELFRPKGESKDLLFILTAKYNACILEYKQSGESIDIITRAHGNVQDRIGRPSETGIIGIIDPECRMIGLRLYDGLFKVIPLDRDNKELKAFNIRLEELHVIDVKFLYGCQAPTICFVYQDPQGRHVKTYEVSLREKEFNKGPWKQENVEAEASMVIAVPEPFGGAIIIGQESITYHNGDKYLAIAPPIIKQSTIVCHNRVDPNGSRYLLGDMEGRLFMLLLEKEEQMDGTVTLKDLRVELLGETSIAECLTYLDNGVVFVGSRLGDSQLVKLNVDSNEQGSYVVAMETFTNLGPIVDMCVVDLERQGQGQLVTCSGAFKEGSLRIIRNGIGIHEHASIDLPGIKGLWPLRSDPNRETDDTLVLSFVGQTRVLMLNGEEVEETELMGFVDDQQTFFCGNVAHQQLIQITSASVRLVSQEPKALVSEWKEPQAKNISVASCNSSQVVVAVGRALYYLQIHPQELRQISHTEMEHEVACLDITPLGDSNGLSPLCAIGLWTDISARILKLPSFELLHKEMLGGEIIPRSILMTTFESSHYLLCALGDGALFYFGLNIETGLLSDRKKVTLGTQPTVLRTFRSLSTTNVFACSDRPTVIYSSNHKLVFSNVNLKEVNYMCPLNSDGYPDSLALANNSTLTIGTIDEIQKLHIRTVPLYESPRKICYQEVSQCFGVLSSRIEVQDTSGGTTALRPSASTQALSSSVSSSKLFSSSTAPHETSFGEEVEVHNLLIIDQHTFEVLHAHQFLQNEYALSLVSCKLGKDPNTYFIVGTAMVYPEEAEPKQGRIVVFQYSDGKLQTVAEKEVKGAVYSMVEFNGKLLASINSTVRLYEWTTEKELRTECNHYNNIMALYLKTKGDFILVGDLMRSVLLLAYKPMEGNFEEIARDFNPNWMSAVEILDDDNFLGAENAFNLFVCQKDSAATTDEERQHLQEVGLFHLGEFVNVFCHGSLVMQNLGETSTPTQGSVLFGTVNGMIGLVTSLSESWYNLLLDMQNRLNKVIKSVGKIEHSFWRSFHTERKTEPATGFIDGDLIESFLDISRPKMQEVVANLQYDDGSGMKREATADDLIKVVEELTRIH

Structure (SMILES) | DC50 | Y
CC[C@@H](NC(=O)c1ccc2c(c1)CN(C1CCC(=O)NC1=O)C2=O)c1ccccc1 (stereo partly drawn) [Example 118] | 100 to 500 nM | ** (a Y value (shown as**) of 20%<Y≤35%)
O=C1CCC(N2Cc3cc(C(=O)N[C@H](c4ccccc4Cl)C(F)(F)F)ccc3C2=O)C(=O)N1 (stereo partly drawn) [Example 50, N-((R)-1-(2-chlorophenyl)-2,2,2-trifluoroethyl)-2-(2,6-dioxopiperidin-3-yl)-1-oxoisoindoline-5-carboxamide] | < 100 nM | * (a Y value (shown as *) of 0<Y≤20%)
COc1cccc([C@@H](NC(=O)c2ccc3c(c2)CN(C2CCC(=O)NC2=O)C3=O)C(F)(F)F)c1 (stereo partly drawn) [Example 33] | < 100 nM | * (a Y value (shown as *) of 0<Y≤20%)
O=C1CCC(N2Cc3cc(C(=O)N[C@H](c4ccc(OC5CC5)cc4)C(F)(F)F)ccc3C2=O)C(=O)N1 (stereo partly drawn) [Example 148, N-((R)-1-(4-cyclopropoxyphenyl)-2,2,2-trifluoroethyl)-2-(2,6-dioxopiperidin-3-yl)-1-oxoisoindoline-5-carboxamide] | < 100 nM | * (a Y value (shown as *) of 0<Y≤20%)
O=C1CCC(N2Cc3cc(C(=O)N[C@H](c4ccncc4)C(F)(F)F)ccc3C2=O)C(=O)N1 (stereo partly drawn) [Example 39, 2-(2,6-dioxopiperidin-3-yl)-1-oxo-N-((R)-2,2,2-trifluoro-1-(pyridin-4-yl)ethyl)isoindoline-5-carboxamide] | 500 to 1000 nM | *** (a Y value (shown as***) of 35%<Y<50%)
O=C1CCC(N2Cc3cc(C(=O)N[C@H](c4ccccc4Oc4ccccc4)C(F)(F)F)ccc3C2=O)C(=O)N1 (stereo partly drawn) [Example 159, 2-(2,6-dioxopiperidin-3-yl)-1-oxo-N-((R)-2,2,2-trifluoro-1-(2-phenoxyphenyl)ethyl)isoindoline-5-carboxamide] | < 100 nM | * (a Y value (shown as *) of 0<Y≤20%)
CC(C)[C@H](NC(=O)c1ccc2c(c1)CN(C1CCC(=O)NC1=O)C2=O)c1ccc(F)cc1 (stereo partly drawn) [Example 170, 2-(2,6-dioxopiperidin-3-yl)-N-((S)-1-(4-fluorophenyl)-2-methylpropyl)-1-oxoisoindoline-5-carboxamide] | < 100 nM | * (a Y value (shown as *) of 0<Y≤20%)

More lines, now with the values ahead:

DC50 | Y | Structure (SMILES)
< 100 nM | * (a Y value (shown as *) of 0<Y≤20%) | O=C1CCC(N2Cc3c(ccc(C(=O)N[C@H](C4CCCC4)C(F)(F)F)c3F)C2=O)C(=O)N1 (stereo partly drawn) [Example 137, N-((R)-1-cyclopentyl-2,2,2-trifluoroethyl)-2-(2,6-dioxopiperidin-3-yl)-4-fluoro-1-oxoisoindoline-5-carboxamide]
< 100 nM | ** (a Y value (shown as**) of 20%<Y≤35%) | O=C1CCC(N2Cc3cc(C(=O)N[C@H](c4ccc(C(F)(F)F)cn4)C(F)(F)F)ccc3C2=O)C(=O)N1 (stereo partly drawn) [Example 126, 2-(2,6-dioxopiperidin-3-yl)-1-oxo-N-((R)-2,2,2-trifluoro-1-(5-(trifluoromethyl)pyridin-2-yl)ethyl)isoindoline-5-carboxamide]
< 100 nM | * (a Y value (shown as *) of 0<Y≤20%) | CN(C)Cc1ccccc1[C@@H](NC(=O)c1ccc2c(c1)CN(C1CCC(=O)NC1=O)C2=O)C(F)(F)F (stereo partly drawn) [Example 192, N-((R)-1-(2-((dimethylamino)methyl)phenyl)-2,2,2-trifluoroethyl)-2-(2,6-dioxopiperidin-3-yl)-1-oxoisoindoline-5-carboxamide]
< 100 nM | * (a Y value (shown as *) of 0<Y≤20%) | Cc1ccccc1[C@@H](CC(F)(F)F)NC(=O)c1ccc2c(c1)CN(C1CCC(=O)NC1=O)C2=O (stereo partly drawn) [Example 196, 2-(2,6-dioxopiperidin-3-yl)-1-oxo-N-((R)-3,3,3-trifluoro-1-o-tolylpropyl)isoindoline-5-carboxamide]
< 100 nM | * (a Y value (shown as *) of 0<Y≤20%) | CN1CCN(c2ccc([C@@H](NC(=O)c3ccc4c(c3)CN(C3CCC(=O)NC3=O)C4=O)C(F)(F)F)cc2)CC1 (stereo partly drawn) [Example 208, 2-(2,6-dioxopiperidin-3-yl)-1-oxo-N-((R)-2,2,2-trifluoro-1-(4-(4-methylpiperazin-1-yl)phenyl)ethyl)isoindoline-5-carboxamide]
